The term IC50 denotes the concentration at which inhibition is half-maximal. A higher IC50 goes with a need for much substance.

One test concerns the target T1, OTR (Homo sapiens, UniProt P30559).
T1 construct: expressed in transfected cells; host or cells: OTR/HEK293 stably transfected cell line
T1 sequence (P30559 1-389): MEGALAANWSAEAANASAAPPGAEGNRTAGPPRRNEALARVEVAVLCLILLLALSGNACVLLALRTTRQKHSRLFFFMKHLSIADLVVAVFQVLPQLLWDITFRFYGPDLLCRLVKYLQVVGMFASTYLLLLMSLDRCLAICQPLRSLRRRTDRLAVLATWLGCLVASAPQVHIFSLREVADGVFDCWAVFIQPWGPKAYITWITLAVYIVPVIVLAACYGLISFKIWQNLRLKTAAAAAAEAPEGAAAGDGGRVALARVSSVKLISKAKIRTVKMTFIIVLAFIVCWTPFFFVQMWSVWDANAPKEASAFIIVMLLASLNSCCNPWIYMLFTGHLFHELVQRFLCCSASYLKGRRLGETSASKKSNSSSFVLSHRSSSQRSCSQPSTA
Description: Ca2+ mobilization in cells stably expressing OTR (FLIPR, antagonist mode). The following applies: OTR/HEK293 stably transfected cell line. It counts as cell-based. The method in brief: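 OTR/HEK293 stable cells (20,000 per well) were loaded with Fluo-4 Direct plus probenecid. Cells were pre-exposed to 10-point, 3-fold compound dilutions before agonist challenge at EC80, determined beforehand per cell line. FLIPR calcium fluorescence (Max-Min) was fitted in Prism.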

A further test has as its target T2, V1aR (Homo sapiens, UniProt P37288).
T2 construct: expressed in transfected cells; host or cells: V1a-CHO stably transfected cell line
Description: Ca2+ mobilization in cells stably expressing V1aR (FLIPR, antagonist mode). It is filed as cell-based. The note with it: V1a-CHO stably transfected cell line.

T2 sequence (P37288 whole entry, species assumed): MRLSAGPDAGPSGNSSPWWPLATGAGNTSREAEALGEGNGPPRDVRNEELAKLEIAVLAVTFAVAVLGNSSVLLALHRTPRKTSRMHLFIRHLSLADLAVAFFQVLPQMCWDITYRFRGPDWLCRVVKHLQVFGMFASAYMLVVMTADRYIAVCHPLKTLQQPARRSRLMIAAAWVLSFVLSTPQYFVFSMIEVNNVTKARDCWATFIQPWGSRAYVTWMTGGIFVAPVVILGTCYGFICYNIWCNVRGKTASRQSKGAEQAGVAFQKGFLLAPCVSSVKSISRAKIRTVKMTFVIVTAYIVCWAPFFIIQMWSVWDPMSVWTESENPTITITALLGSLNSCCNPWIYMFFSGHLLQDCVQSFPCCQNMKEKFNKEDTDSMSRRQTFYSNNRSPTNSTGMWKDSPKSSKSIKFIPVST

As for `CON=C1CC(CO)N(C(=O)c2ccc(-c3cccc(C#N)c3C)c3c2OCO3)C1` (single isomer, unassigned) [Example C0099], the figures for the IC50 against OTR and against V1aR were 17.5 nM and 5280 nM, respectively.

With `CO/N=C1/C[C@@H](CO)N(C(=O)c2ccc(-c3cccc(C#N)c3Cl)cc2)C1` [Example A0203, 2-Chloro-3-(4-[(2S, 4Z)-2-(hydroxymethyl)-4-(methoxyimino)pyrrolidine-1-carbonyl]phenyl)benzonitrile], the IC50 against OTR amounted to 20.8 nM; against V1aR, 1360 nM.

On to `CO/N=C1/C[C@@H]([C@@H](C)O)N(C(=O)c2ccc(-c3cccc(C#N)c3C)cc2)C1` (single isomer, unassigned) [Example C0112], for which the values for the IC50 against OTR and at V1aR were 7.51 nM and 602 nM, respectively.

For the compound `CO/N=C1/C[C@@H](CO)N(C(=O)c2ccc(-c3cccc(C#N)c3C)cc2)C1` [Example C0058, (S, Z)-4′-(2-(Hydroxymethyl)-4-(methoxyimino)pyrrolidine-1-carbonyl)-2-methyl-[1,1′-biphenyl]-3-carbonitrile], the IC50 against OTR was determined as 17.7 nM; against V1aR it was 2250 nM.

As to `CO/N=C1/C[C@@H](CO)N(C(=O)c2ccc(-c3cc(F)cc(C#N)c3C)c3c2OCCO3)C1` [Example C0152, (S,Z)-5-Fluoro-3-(8-(2-(hydroxymethyl)-4-(methoxyimino)pyrrolidine-1-carbonyl)-2,3-dihydrobenzo[b][1,4]dioxin-5-yl)-2-methylbenzonitrile], the IC50 at OTR stood at 6.63 nM; on V1aR it was 9810 nM.

These data come from patent publication US20260248763A1 (BIO GENUINE (SHANGHAI) BIOTECH CO., LTD, priority 2023, published 2026).
